Assay results reported in patent publication US7803788B2, “Prodrugs of phosphonate nucoleotide analogues” (Gilead Sciences, Inc., priority 2000, dated 2010).
Where two headings read alike, the source gives them in different places.

Tests used:
[1] = dogs, oral, 10 mg-equivalent of PMPA/kg
Description: Formulations. The prodrugs were formulated as solutions in 50 mM citric acid within 0.5 hour prior to dose. All compounds used in the studies were synthesized by Gilead Sciences. The following lots were used:
Dose Administration and Sample Collection. The in-life phase of this study was conducted in accordance with the recommendations of the “Guide for the Care and Use of Laboratory Animals” (National Institutes of Health publication 86-23) and was approved by an Institutional Animal Care and Use Committee. Fasted male beagle dogs (10±2 kg) were used for the studies. Each drug was administered as a single dose by oral gavage (1.5-2 ml/kg). The dose was 10 mg-equivalent of PMPA/kg. […] Blood (1.0 ml) was processed immediately for plasma by centrifugation at 2,000 rpm for 10 min. Plasma samples were frozen and maintained at […] until analyzed.
Peripheral Blood Mononuclear Cell (PBMC) preparation. Whole blood (8 ml) drawn at specified time points was mixed in equal proportion with phosphate buffered saline (PBS), layered onto 15 ml of Ficoll-Paque solution (Pharmacia Biotech,) and centrifuged at 400×g for 40 min. PBMC layer was removed and washed once with PBS. Formed PMBC pellet was reconstituted in 0.5 ml of PBS, cells were resuspended, counted using hemocytometer and maintained at […] until analyzed. The number of cells multiplied by the mean single-cell volume was used in calculation of intracellular concentrations. […] Agents Chemother.
Determination of PMPA and Prodrugs in plasma and PBMCs. […] Derivatized samples were then evaporated to dryness and reconstituted in 100 μl of water for HPLC analysis.
Before intracellular PMPA could be determined by HPLC, the large amounts of adenine related ribonucleotides present in the PBMC extracts had to be removed by selective oxidation.
The mobile phases used were: A, 5% acetonitrile in 25 mM potassium phosphate buffer with 5 mM tetrabutyl ammonium bromide (TBABr), pH 6.0; B, 60% acetonitrile in 25 mM potassium phosphate buffer with 5 mM TBABr, pH 6.0. The flow rate was 2 ml/min and the column temperature was maintained at 35° C. by a column oven. […] Data was acquired and stored by a laboratory data acquisition system (PeakPro, Beckman, Allendale, N.J.).
Pharmacokinetic Calculations. […] The AUC values were calculated using the trapezoidal rule.

HIV-1 = test: In vitro anti-HIV-1 activity in MT-2 cells; assay type: cell-based; conditions: for Fold change: Table 4, IC50 relative to PMPA
[2] = tested on: PLCE (porcine liver carboxyesterase); test: PLCE hydrolysis; assay type: in vitro ADME; conditions: 37° C., PBS pH 7.4
Description: (§1) The in vitro metabolism and stability of separated diastereomers were determined in PLCE, MT-2 extract and human plasma. A biological sample listed below, 80 μL, was transferred into a screw-capped centrifuge tube and incubated at 37° C. for 5 min. A solution containing 0.2 mg/mL of the test compound in a suitable buffer, 20 μL, was added to the biological sample and mixed. The reaction mixture, 20 μL, was immediately sampled and mixed with 60 μL of methanol containing 0.015 mg/mL of 2-hydroxymethylnaphthalene as an internal standard for HPLC analysis. The sample was taken as the time-zero sample. Then, at specific time points, the reaction mixture, 20 μL, was sampled and mixed with 60 μl of methanol containing the internal standard. The mixture thus obtained was centrifuged at 15,000 G for 5 min and the supernatant was analyzed with HPLC under the conditions described below.
(§2) The biological samples evaluated are as follows, • (1) PLCE (porcine liver carboxyesterase from Sigma, 160 u/mg protein, 21 mg protein/mL) diluted 20 fold with PBS (phosphated-buffered saline). • (2) MT-2 cell extract was prepared from MT-2 cells according to the published procedure [A. Pompon, I. Lefebvre, J.-L. Imbach, S. Kahn, and D. Farquhar, “Antiviral Chemistry & Chemotherapy”, 5:91-98 (1994)] except for using HEPES buffer described below as the medium. • (3) Human plasma (pooled normal human plasma from George King Biomedical Systems, Inc.)
In the study for PLCE, the test compound was dissolved in PBS. PBS (phosphate-buffered saline, Sigma) contains 0.01 M phosphate, 0.0027 M potassium chloride, and 0.137 M sodium chloride. pH 7.4 at 37° C.
(§3) The HPLC analysis was carried out under the following conditions.

[3] = Stability in human plasma; assay type: in vitro ADME; conditions: for Human Plasma Stability (HP) product / Human Plasma Stability (HP) t1/2: 37° C., TBS pH 7.5
Description: as §1, §2
In the study for human plasma, the test compound was dissolved in TBS. TBS (tris-buffered saline, Sigma) contains 0.05 M Tris, 0.0027 M potassium chloride, and 0.138 M sodium chloride. pH 7.5 at 37° C.
as §3

[4] = Stability / hydrolysis in MT-2 cell extract; assay type: in vitro ADME; conditions: for MT-2 extract hydrolysis product: 37° C., HEPES buffer pH 7.4
Description: as §1, §2
In the study for MT-2 cell extracts, the test compound was dissolved in HEPES buffer. HEPES buffer contains 0.010 M HEPES, 0.05 M potassium chloride, 0.005 M magnesium chloride, and 0.005 M dl-dithiothreitol. pH 7.4 at 37° C.
as §3

MT-2 cells = test: Cytotoxicity in MT-2 cells
[5] = PMPA metabolites in plasma, PBMCs and RBCs after 1 h incubation in human blood
Description: After 1 hour, plasma, red blood cells (RBCs) and peripheral blood mononuclear cells (PBMCs) were isolated and analyzed by HPLC with radiometric detection.
Met. Lower case “p” designates phosphorylation.

[6] = Excretion and tissue distribution of radiolabelled GS-7340 in dogs; conditions: dogs, oral 10 mg-eq. PMPA/kg
Description: Plasma and peripheral blood mononuclear cells (PBMCs) were obtained over the 24-hr period. Urine and feces were cage collected over 24 hr. At 24 h after the dose, the animals were sacrificed and tissues removed for analysis. Total radioactivity in tissues was determined by oxidation and liquid scintillation counting.

[7] = Table 4, effect of diastereomer, read-out: IC50
[8] = Table 5 (selected IC50 data from Table 4), read-out: HIV IC50

SMILES: CCOC(=O)C(C)NP(=O)(COC(C)Cn1cnc2c(N)ncnc21)Oc1ccccc1 (single isomer, unassigned) [GS-7115]
- PBMC/Plasma Exposure Ratio [1]: 43
- Prodrug in Plasma [1]: YES
- IC50 (HIV-1; [7]): 50 nM
- Fold change (HIV-1): 100x

SMILES: CCOC(=O)C(C)NP(=O)(COC(C)Cn1cnc2c(N)ncnc21)Oc1ccccc1 (single isomer, unassigned) [compound 1]
- PLCE hydrolysis product [2]: Met. X & PMPA
- Human Plasma Stability (HP) product [3]: Met. Y
- Human Plasma Stability (HP) t1/2 [3]: 148 min
- MT-2 extract hydrolysis product [4]: Met. X & PMPA
- IC50 (HIV-1; [8]): 5 nM

SMILES: CCOC(=O)C(C)NP(=O)(COC(C)Cn1cnc2c(N)ncnc21)Oc1ccccc1 (single isomer, unassigned) [GS-7114]
- PBMC/Plasma Exposure Ratio [1]: 122
- Prodrug in Plasma [1]: YES
- IC50 (HIV-1; [7]): 5 nM
- Fold change (HIV-1): 1,000x

SMILES: CC(C)OC(=O)[C@H](C)N[P@](=O)(CO[C@H](C)Cn1cnc2c(N)ncnc21)Oc1ccccc1 (single isomer, unassigned) [GS-7340]
- Stability T ½ Human Plasma ([3]; human plasma): 90.0 min
- CC50 (MT-2 cells; Table 4): ≥ 40 µM
- CC50 (MT-2 cells; read-out: Cytotoxicity CC50, MT-2 cells, Table 1): > 40 µM
- Metabolites (% of Total Peak Area): GS 7340 (intact) ([5]; Plasma/FP): 84%
- Total C-14 Recovered ([5]; Plasma/FP, 60 μg-eq): 43.0 μg-eq
- Metabolites (% of Total Peak Area): GS 7340 (intact) ([5]; RBC/FP): 57%
- Stability T ½ MT-2 Cell Extract ([4]; MT-2 cell extract): 28.3 min
- % Dose ([6]; Abdominal fat): 0.00%
- Conc. ([6]; Abdominal fat): 0.90 ug-eq/g
- % Dose ([6]; Adrenal Gland): 0.00%
- % Dose ([6]; Axillary Lymph Nodes): 0.01%
- % Dose ([6]; Bile): 0.22%
- % Dose ([6]; Bone Marrow): 0.00%
- % Dose ([6]; Brain): 0.00%
- Conc. ([6]; Brain): <LOD
- % Dose ([6]; Cerebrospinal Fluid): 0.00%
- Conc. ([6]; Cerebrospinal Fluid): 0.00 ug-eq/g
- % Dose ([6]; Duodenum): 0.44%
- % Dose ([6]; Eye (L + R)): 0.00%
- Conc. ([6]; Eye (L + R)): 0.23 ug-eq/g
- % Dose ([6]; Feces): 0.19%
- % Dose ([6]; Femoral Bone): 0.00%
- Conc. ([6]; Femoral Bone): 0.28 ug-eq/g
- % Dose ([6]; Gall bladder): 0.04%
- % Dose ([6]; Heart): 0.15%
- % Dose ([6]; Ileum): 0.16%
- % Dose ([6]; Iliac Lymph Nodes): 0.01%
- % Dose ([6]; Inguinal Lymph Nodes): 0.00%
- % Dose ([6]; Jejunum): 0.79%
- % Dose ([6]; Lungs): 0.34%
- % Dose ([6]; Mesenteric Lymph Nodes): 0.04%
- % Dose ([6]; Pancreas): 0.01%
- % Dose ([6]; Pituitary Gland): 0.00%
- Conc. ([6]; Pituitary Gland): 1.80 ug-eq/g
- % Dose ([6]; Prostate): 0.00%
- % Dose ([6]; Salivary Gland (L + R)): 0.03%
- % Dose ([6]; Skeletal Muscle): 0.01%
- % Dose ([6]; Skin): 0.00%
- Conc. ([6]; Skin): 0.95 ug-eq/g
- % Dose ([6]; Spinal Cord): 0.00%
- Conc. ([6]; Spinal Cord): 0.04 ug-eq/g
- % Dose ([6]; Spleen): 0.17%
- % Dose ([6]; Stomach): 0.26%
- % Dose ([6]; Testes (L + R)): 0.02%
- % Dose ([6]; Thyroid Gland): 0.00%
- % Dose ([6]; Whole Blood): 0.16%
- Conc. ([6]; Whole Blood): 0.20 ug-eq/g

SMILES: CCOC(=O)C(C)NP(=O)(COC(C)Cn1cnc2c(N)ncnc21)Oc1ccccc1 (single isomer, unassigned) [compound 2]
- PLCE hydrolysis product [2]: Met. X & PMPA
- Human Plasma Stability (HP) product [3]: Met. Y
- Human Plasma Stability (HP) t1/2 [3]: 495 min
- MT-2 extract hydrolysis product [4]: Met. X & PMPA
- IC50 (HIV-1; [8]): 50 nM

SMILES: CCOC(=O)C(CC)NP(=O)(COC(C)Cn1cnc2c(N)ncnc21)Oc1ccccc1 (single isomer, unassigned) [compound 6]
- PLCE hydrolysis product [2]: Met. X
- Human Plasma Stability (HP) product [3]: Met. Y
- Human Plasma Stability (HP) t1/2 [3]: 257 min
- IC50 (HIV-1; [8]): 30 nM
